Holding throughout (assay): NCI tumour cell line growth inhibition, 48 h
Test [1] has as its system T-47D breast.
Test [2] has as its system MCF7 breast.
Test [3] relates to CCRF-CEM leukemia.
Test [4] relates to UACC-257 melanoma.
Test [5] deals with K-562 leukemia.
For test [6], the system named is ACHN renal.
Test [7] deals with OVCAR-5 ovarian.
Test [8] concerns EKVX NSCLC.
Test [9] deals with UO-31 renal.
In test [10] the test system is SF-295 CNS.

“And” between values parts separate entries of the source, which are not always exact repeats. Equal entries are not always repeated.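 Protocol summary: plate cells (96-well), add compound at 5 concentrations, incubate 48 h, interpolate endpoints linearly. GI50 = concentration required for 50% inhibition of growth. TGI is the concentration that stops growth completely.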 Some results are limits rather than exact numbers.

On to `Cc1c[nH]c(=O)n(Cc2nnc(CCC(=O)c3nc4ccccc4[nH]3)o2)c1=O`, for which the GI50 was 1.03 µM in test [1]; 0.205 µM in test [2]; 0.459 µM in [3]; 0.787 µM in test [4]; 1.03 µM in [5]; 7.56 µM in test [6]. The GI50 is 0.879 µM in test [7], 1.51 µM in test [8], 2.4 µM in [9] and 0.728 µM in [10]. Also, the TGI in [1], in test [2], in test [3], in test [4], in [5] and in test [6] was > 100 µM in each case. Also, the TGI in test [7] is > 100 µM; in [8] it was > 100 µM; in test [9] it was > 100 µM; in test [10], 9.48 µM.

In the case of `O=C(Nc1cccc(C(F)(F)F)c1)c1ccc(NC2=C(Cl)C(=O)N(Cc3ccccc3)C2=O)cc1`, the GI50 in test [1] is 12.4 µM; in [2] it was 2.02 µM; in test [3] it was 3.06 µM; in test [4], 27.9 µM; in test [5], 1.46 µM; in test [6], 15.3 µM. Also, the GI50 was 16.3 µM in test [7], 23.5 µM in test [8], 2.84 µM in test [9] and 10.1 µM in test [10]. Further, the TGI in test [1] was 52.7 µM; in test [2], 4.54 µM; in test [3] it was > 100 µM; in [4], 58 µM; in [5], 12.5 µM; in test [6], 29.5 µM. For the same compound, the TGI is 34.5 µM in test [7], 54.4 µM in test [8], 9.06 µM in [9] and 23.6 µM in test [10].

Consider `C=CCOc1ccc(N)c([N+](=O)[O-])c1`, for which the TGI in [1], in test [2], in test [3], in test [4], in test [5] and in [6] was > 100 µM throughout. In addition, the TGI in [7], in [8], in test [9] and in [10] was > 100 µM in each case.

Turning to `CC1(C)CCc2c(c(N=Nc3ccccc3F)c3ccccc3c2O)O1`, the GI50 in test [1] was 36.9 µM; in test [2] it was > 100 µM; in [3] it was > 100 µM; in test [4], > 100 µM; in test [5], > 100 µM; in [6], 22 µM. For the same compound, the GI50 in [7] is 73.7 µM; in test [8], > 100 µM; in test [9], 54.7 µM; in test [10] it was 17.8 µM. The TGI was > 100 µM in [1]; > 100 µM in test [2]; > 100 µM in [3]; > 100 µM in [4]; > 100 µM in test [5]; 52.5 µM in test [6]. Further, the TGI was > 100 µM in test [7], > 100 µM in test [8], > 100 µM in test [9] and 44 µM in test [10].

In the case of `O=C(c1ccc2ccccc2c1)c1c(C(F)(F)F)n([O-])c2cc(C(F)(F)F)ccc2[n+]1=O`, the GI50 was 1.31 µM in test [1]; 1.63 µM in test [2]; 1.22 µM in test [4]; 1.38 µM in [5]; 1.5 µM in test [6]; 2.03 µM in [7]. The GI50 in test [8] was 1.57 µM; in [9] it was 1.36 µM; in test [10] it was 1.45 µM. The TGI in [1] is 3.38 µM; in [2] it was 3.49 µM; in test [3], 0.385 µM; in test [4] it was 2.69 µM; in [5] it was 2.9 µM; in test [6], 2.88 µM. Besides, the TGI in test [7] is 4.79 µM; in test [8] it was 3.43 µM; in [9], 2.7 µM; in [10], 2.84 µM.

Regarding `FC(F)(F)c1cc(NC(=S)N2c3ccccc3-n3cccc3C2c2cccnc2)cc(C(F)(F)F)c1` (stereo not given), the GI50 was 3.89 µM in test [1]; 12.9 µM in test [2]; 4.1 µM in test [3]; 3.9 µM in test [4]; 3.58 µM in [5]; 7.11 µM in test [6]. Besides, the GI50 is 22 µM in test [7], 9.67 µM in test [8], 19.9 µM in [9] and 5.52 µM in test [10]. Further, the TGI in test [1] amounted to 26.2 µM; in test [2] it was 32 µM; in [3], 33.7 µM; in test [4], 15.7 µM; in test [5] it was 19.3 µM; in test [6] it was 62 µM. Also, the TGI in test [7] came to 59.2 µM; in [8], 37.8 µM; in test [9] it was 36.9 µM; in [10], 21.1 µM.

For the compound `O=C1OC(c2ccc(Cl)cc2)=N/C1=C\c1ccccc1`, the TGI in test [1], in test [2], in test [3], in test [4], in test [5] and in [6] was > 100 µM throughout. Further, the TGI in test [7], in test [8], in test [9] and in [10] was > 100 µM each time.

As for `CC1=C2[C@@H](CC1)[C@]1(C)O[C@@](C(C)C)(C[C@H]1OC(=O)CO)[C@H]2OC(=O)CCCc1ccccc1`, the GI50 in test [1] was 2.54 µM; in [2] it was 13.2 µM; in test [3], 4.65 µM; in test [4] it was 13.1 µM; in test [5] it was 5.88 µM; in test [6], 7.02 µM. Moreover, the GI50 in test [7] is 15.7 µM; in test [8], 15 µM; in test [9], 3.36 µM; in test [10], 12.5 µM. In addition, the TGI in test [1] turned out to be 12.3 µM; in test [2], 29.7 µM; in test [3] it was 34.7 µM; in test [4], 27.2 µM; in test [5], 44.7 µM; in test [6], 19.3 µM. In addition, the TGI in [7] is 30 µM; in test [8] it was 30.8 µM; in [9], 14.7 µM; in test [10], 24.9 µM.

Turning to `CC1OC(CC(=O)O)Cc2c1c(O)c1c(O)cc(-c3cc(=O)c4c(=O)c5c(c(=O)c=4c3=O)CC(CC(=O)O)OC5C)c(O)c1c2O` (stereo not given), the GI50 was 30 µM in test [1]; 27.7 µM in [2]; 21.8 µM in [4]; 61.1 µM in [5]; 43.3 µM in test [6]; 53.1 µM in test [7]. Further, the GI50 in [8] was 26.1 µM; in test [9] it was 30.3 µM; in test [10], 77.3 µM. For the same compound, the TGI in [3] is > 48.2 µM; in [4] it was 26.9 µM and 66.9 µM; in [5], > 83.6 µM; in test [6] it was > 81 µM; in [7] it was > 91.1 µM; in test [8], 18.3 µM and 74.5 µM. Besides, the TGI is > 64.5 µM in test [9] and > 100 µM in test [10].

Consider `CC[C@H]1CCC/C=C/[C@@H]2C[C@H](O)C[C@H]2[C@H](O)/C=C/C(=O)O1`, for which the GI50 in test [1] was 0.0636 µM; in [2], 0.0266 µM; in test [3] it was 0.0455 µM; in [4] it was 0.0802 µM; in test [5], 0.125 µM; in test [6], 0.0443 µM. For the same compound, the GI50 in test [7] was 0.0464 µM; in test [8], 0.0522 µM; in [9], 0.0267 µM; in test [10], 0.0545 µM. In addition, the TGI in [1] is 0.263 µM; in [2], 0.102 µM; in test [3], > 100 µM; in test [4] it was > 100 µM; in test [5] it was > 100 µM; in test [6], > 100 µM. In addition, the TGI in test [7] was > 100 µM; in test [8], > 100 µM; in test [9], > 37.2 µM; in test [10], > 100 µM.

With `Fc1ccc(-c2ncn(CCCN3CCOCC3)c2-c2ccncc2)cc1`, the GI50 in [1], in test [2], in test [3], in test [4], in [5] and in test [6] was > 25 µM in each case. Moreover, the GI50 in test [7], in test [8], in test [9] and in test [10] was > 25 µM each time. Also, the TGI in test [1], in test [2], in test [3], in test [4], in test [5] and in test [6] was > 25 µM throughout. The TGI in test [7], in test [8], in [9] and in test [10] was > 25 µM throughout.

On to `S=C1SCN(Cc2ccccc2)CN1Cc1ccccc1`, for which the GI50 in test [1] is 3.51 µM; in [2], 2.19 µM; in test [3] it was 1.15 µM; in test [4], 16 µM; in test [5], 1.15 µM; in test [6], 14.8 µM. Also, the GI50 in [7] is 25.7 µM; in test [8] it was 21.2 µM; in test [9], 5.43 µM; in test [10], 24.4 µM. Moreover, the TGI in test [1] was determined as 21.1 µM; in test [2], 15.1 µM; in test [3] it was 3.56 µM; in test [4] it was 33.2 µM; in test [5] it was 9 µM; in test [6], 28.2 µM. Besides, the TGI in [7] was > 60.5 µM; in [8] it was > 57.8 µM; in test [9], 19 µM; in [10] it was > 90 µM.

On to `O=C(Nc1ccccc1Cl)c1ccc(NC2=C(Cl)C(=O)N(C3CCCCC3)C2=O)cc1`, for which the GI50 was 6.41 µM in test [1]; 9.82 µM in [2]; 8.29 µM in test [3]; 5.29 µM in test [4]; 2.88 µM in [5]; 10.6 µM in test [6]. The GI50 in [7] was 49.5 µM; in [8], 24.3 µM; in test [9], 16.6 µM; in [10] it was 26.4 µM. The TGI in [1] stood at 34.8 µM; in [2], 36 µM; in [3] it was 33.5 µM; in [4] it was 15 µM; in [5], 17.9 µM; in test [6] it was 30.4 µM. Moreover, the TGI in [7] was determined as 128 µM; in test [8], 53.1 µM; in test [9], 42.3 µM; in test [10], 68.1 µM.

As to `O=C1c2ccccc2C(=O)c2c1oc1c2c(=O)[nH]c2ccc(Cl)cc21`, the GI50 was 0.256 µM in [1]; 0.23 µM in test [2]; 0.403 µM in test [3]; 1.33 µM in test [4]; 0.375 µM in test [5]; 0.203 µM in [6]. For the same compound, the GI50 in [7] is 3.44 µM; in test [8] it was 0.249 µM; in test [9] it was 0.195 µM; in test [10], 0.637 µM. Besides, the TGI is 0.981 µM in test [1]; 1.05 µM in test [2]; 4.66 µM in [3]; 3.36 µM in test [4]; 2.01 µM in test [5]; 0.577 µM in test [6]. Moreover, the TGI in test [7] is 14.7 µM; in [8] it was 2.44 µM; in test [9], 0.605 µM; in [10] it was 2.29 µM.

Turning to `CCN(CC)CCn1c(=O)c2cc(OC)c(OC)cc2c2ccc3cc4c(cc3c21)OCO4`, the GI50 in test [1] was 0.26 µM; in test [2], 0.0607 µM; in test [3] it was 0.0824 µM; in test [4], 0.472 µM; in [5] it was 0.536 µM; in [6], 0.266 µM. The GI50 in test [7] is 8.21 µM; in test [8], 12.2 µM; in [9], 0.405 µM; in test [10] it was 0.0907 µM. The TGI in test [1] is 26.4 µM; in [2], 24.8 µM; in [3], > 33.6 µM; in [4], 22.2 µM; in [6] it was 12 µM; in test [7] it was 36.1 µM. In addition, the TGI in test [8] came to 29.4 µM; in test [9], 17.3 µM; in test [10] it was 2.54 µM.

These data come from PubChem BioAssay (NCI).
